Measured values reported in ChEMBL document CHEMBL6103655, “Structure and Synthesis of Amatyemides A and B, Cyclic Octadepsipeptides from South African Stromatolites” (2025).
Activity calls are given as the source filed them.

Key:
[1] = tested on: U-87 MG; assay: Induction of oxidative stress in human U-87 MG cells assessed as reduction in GLuc expression at 3 to 6 uM incubated for 18 hrs in the presence of NAC; type: functional, cell-based; conditions: U-87MG ATCC, dose 3-6 µM
[2] = tested on: U-87 MG; assay: Induction of oxidative stress in human U-87 MG cells assessed as reduction in GLuc expression at 3 to 6 uM incubated for 18 hrs; type: functional, cell-based; conditions: U-87MG ATCC, dose 3-6 µM
[3] = tested on: U-87 MG; assay: Induction of oxidative stress in human U-87 MG cells cultured with GLuc assessed as change in cell viability at 3 to 6 uM incubated for 18 hrs by CellTiter-Glo luminescent assay; type: functional, cell-based; conditions: U-87MG ATCC, dose 3-6 µM
[4] = tested on: Acinetobacter baumannii; assay: Antimicrobial activity against Acinetobacter baumannii ATCC BAA-1605 at 0.14 mg/mL in broth medium incubated for 14 to 16 hrs by Synergy4 plate reader analysis; type: functional, organism-based; conditions: time 14-16 hrs
[5] = tested on: Pseudomonas aeruginosa; assay: Antimicrobial activity against Pseudomonas aeruginosa ATCC […] at 0.14 mg/mL in broth medium incubated for 14 to 16 hrs by Synergy4 plate reader analysis; type: functional, organism-based; conditions: time 14-16 hrs
[6] = tested on: Klebsiella pneumoniae; assay: Antimicrobial activity against Klebsiella pneumoniae ATCC BAA-2344 at 0.14 mg/mL in broth medium incubated for 14 to 16 hrs by Synergy4 plate reader analysis; type: functional, organism-based; conditions: time 14-16 hrs
[7] = tested on: Escherichia coli; assay: Antimicrobial activity against Escherichia coli ATCC BAA-2523 at 0.14 mg/mL in broth medium incubated for 14 to 16 hrs by Synergy4 plate reader analysis; type: functional, organism-based; conditions: time 14-16 hrs
[8] = tested on: Staphylococcus aureus; assay: Antimicrobial activity against Staphylococcus aureus subsp. aureus ATCC 700698 at 0.14 mg/mL in broth medium incubated for 14 to 16 hrs by Synergy4 plate reader analysis; type: functional, organism-based; conditions: time 14-16 hrs
[9] = tested on: Enterococcus faecium; assay: Antimicrobial activity against Enterococcus faecium ATCC BAA-2317 at 0.14 mg/mL in broth medium incubated for 14 to 16 hrs by Synergy4 plate reader analysis; type: functional, organism-based; conditions: time 14-16 hrs
[10] = tested on: Candida albicans; assay: Antimicrobial activity against Candida albicans ATCC MYA-574 at 0.14 mg/mL in broth medium incubated for 14 to 16 hrs by Synergy4 plate reader analysis; type: functional, organism-based; conditions: time 14-16 hrs
[11] = tested on: Cryptococcus neoformans; assay: Antimicrobial activity against Cryptococcus neoformans var. grubii ATCC 90112 at 0.14 mg/mL in broth medium incubated for 14 to 16 hrs by Synergy4 plate reader analysis; type: functional, organism-based; conditions: time 14-16 hrs
[12] = tested on: HCT-116; assay: Cytotoxicity against human HCT-116 cells incubated for 72 hrs by CellTiter-Glo assay; type: functional
[13] = tested on: SH-SY5Y; assay: Cytotoxicity against human SH-SY5Y cells assessed as reduction in cell viability at 10 uM incubated for 72 hrs by CellTiter-Glo assay; type: functional

COc1ccc(C[C@H](NC(=O)/C(C)=C/[C@H]2CSC([C@@H](C)[C@@H](O)C[C@H](C)C[C@H](O)C(C)(C)C)=N2)C(=O)N(C)[C@@H](C)C(=O)N(C)[C@@H]2C(=O)N3CCC[C@H]3C(=O)OC(C)[C@@H]2C)cc1 (some centres undefined)
active: Activity [1]

CCCCCCCC[C@H]1OC(=O)[C@H](CC(C)C)N(C)C(=O)[C@H](C(C)C)NC(=O)[C@@H](Cc2ccccc2)NC(=O)[C@H]([C@@H](C)CC)OC(=O)[C@H]([C@@H](C)OC)NC(=O)[C@H](C)NC(=O)[C@H](CC(C)C)NC1=O (stereo in doubt; 2a) [listing 1 of 2 here]
inactive: Activity [1]

CCCCCCCC[C@H]1OC(=O)[C@H](CC(C)C)N(C)C(=O)[C@H](C(C)C)NC(=O)[C@@H](Cc2ccccc2)NC(=O)[C@H]([C@@H](C)CC)OC(=O)[C@H]([C@@H](C)OC)NC(=O)[C@H](C)NC(=O)[C@H](CC(C)C)NC1=O (stereo in doubt; 2)
inactive: Activity [3] | Activity [1] | Activity [4] | Activity [5] | Activity [6] | Activity [7] | Activity [8] | Activity [9] | Activity [10] | Activity [11]
active: Activity [2]

CCCCCCCCCC[C@H]1OC(=O)[C@H](CC(C)C)N(C)C(=O)[C@H](C(C)C)NC(=O)[C@@H](Cc2ccccc2)NC(=O)[C@H]([C@@H](C)CC)OC(=O)[C@H]([C@@H](C)OC)NC(=O)[C@H](C)NC(=O)[C@H](CC(C)C)NC1=O
3290 nM: CC50 [12]
inactive: Activity [2] | Activity [3] | Activity [1] | Activity [13] | Activity [4] | Activity [5] | Activity [6] | Activity [7] | Activity [8] | Activity [9] | Activity [10] | Activity [11]

CCCCCCCC[C@H]1OC(=O)[C@H](CC(C)C)N(C)C(=O)[C@H](C(C)C)NC(=O)[C@@H](Cc2ccccc2)NC(=O)[C@H]([C@@H](C)CC)OC(=O)[C@H]([C@@H](C)OC)NC(=O)[C@H](C)NC(=O)[C@H](CC(C)C)NC1=O (stereo in doubt; 2a) [listing 2 of 2 here]
1750 nM: CC50 [12]
~50%: Activity [13]

C=C(C)[C@H]1Cc2c(ccc3c2O[C@@H]2COc4cc(OC)c(OC)cc4[C@@H]2C3=O)O1
inactive: Activity [1]
